# In patent US20120264735A1 (priority 2009, published 2012):
# Biological target: T1, c-Met kinase (recombinant c-Met) (Homo sapiens, UniProt P08581)
# T1 construct: 0.27 nM recombinant c-Met
# Assay: In vitro kinase assay I (homogeneous time-resolved fluorescence tyrosine kinase assay)
# Assay type: biochemical
# Outline: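 Biotinylated peptide (0.5 μM) phosphorylated by 0.2 nM recombinant c-Met with 50 μM MgATP, 60 min at room temperature, pH 7.4, 5% DMSO. EDTA stop; HTRF read with Eu-anti-phosphotyrosine antibody and streptavidin-APC. IC50 from 4-parameter logistic fit.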
# T1 sequence (P08581 25-1390): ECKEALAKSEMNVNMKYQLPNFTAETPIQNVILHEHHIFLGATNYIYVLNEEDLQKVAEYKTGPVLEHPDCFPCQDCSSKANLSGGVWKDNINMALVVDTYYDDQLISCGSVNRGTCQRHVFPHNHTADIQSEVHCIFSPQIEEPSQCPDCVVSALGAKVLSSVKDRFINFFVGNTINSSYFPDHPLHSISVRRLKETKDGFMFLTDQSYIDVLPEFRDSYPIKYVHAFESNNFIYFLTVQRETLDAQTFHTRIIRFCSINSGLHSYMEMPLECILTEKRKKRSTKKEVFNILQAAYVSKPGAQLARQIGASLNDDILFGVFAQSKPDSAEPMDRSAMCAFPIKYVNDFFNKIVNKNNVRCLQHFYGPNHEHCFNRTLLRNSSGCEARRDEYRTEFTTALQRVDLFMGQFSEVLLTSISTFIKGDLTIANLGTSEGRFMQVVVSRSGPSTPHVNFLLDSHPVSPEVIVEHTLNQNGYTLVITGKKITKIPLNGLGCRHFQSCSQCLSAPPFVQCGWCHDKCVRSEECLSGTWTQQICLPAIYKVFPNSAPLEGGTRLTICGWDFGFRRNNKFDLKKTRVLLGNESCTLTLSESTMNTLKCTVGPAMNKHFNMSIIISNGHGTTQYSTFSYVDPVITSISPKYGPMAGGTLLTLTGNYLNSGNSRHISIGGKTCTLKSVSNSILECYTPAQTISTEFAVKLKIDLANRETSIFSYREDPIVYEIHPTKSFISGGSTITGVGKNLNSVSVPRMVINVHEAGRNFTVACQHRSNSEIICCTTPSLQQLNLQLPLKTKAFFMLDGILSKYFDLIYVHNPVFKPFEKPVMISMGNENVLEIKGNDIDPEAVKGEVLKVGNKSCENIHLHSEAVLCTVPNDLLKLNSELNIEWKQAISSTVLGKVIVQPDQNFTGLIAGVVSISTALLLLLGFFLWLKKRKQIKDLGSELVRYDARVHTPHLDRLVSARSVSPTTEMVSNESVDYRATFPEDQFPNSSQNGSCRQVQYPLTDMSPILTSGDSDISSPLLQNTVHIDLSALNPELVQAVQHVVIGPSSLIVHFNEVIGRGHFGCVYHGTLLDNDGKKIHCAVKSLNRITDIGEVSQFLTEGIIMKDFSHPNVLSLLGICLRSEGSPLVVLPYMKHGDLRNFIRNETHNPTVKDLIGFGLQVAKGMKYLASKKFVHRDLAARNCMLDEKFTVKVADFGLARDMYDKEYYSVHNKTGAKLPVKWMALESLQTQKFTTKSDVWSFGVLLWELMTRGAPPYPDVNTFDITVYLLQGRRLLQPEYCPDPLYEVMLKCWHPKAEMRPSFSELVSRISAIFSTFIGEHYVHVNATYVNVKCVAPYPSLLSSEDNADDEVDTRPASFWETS
row,SMILES,IC50
1,"CC(c1cccc(-c2nccc(C(F)F)n2)c1)c1nn(-c2cnn(C)c2)ccc1=O (single isomer, unassigned) [Example 690, 3-[(1R or S)-1-{3-[4-(Difluoromethyl)pyrimidin-2-yl]phenyl}ethyl]-1-(1-methyl-1H-pyrazol-4-yl)pyridazin-4(1H)-one]",< 100 nM
2,"CC(c1cccc(-c2ncc(F)c(C3CC3)n2)c1)c1nn(-c2cnn(C)c2)ccc1=O (single isomer, unassigned) [Example 692, 3-{(1R or S)-1-[3-(4-cyclopropyl-5-fluoropyrimidin-2-yl)phenyl]ethyl}-1-(1-methyl-1H-pyrazol-4-yl)pyridazin-4(1H)-one]",< 100 nM
3,"Cc1nc(-c2cccc(C(C)c3nn(-c4cnn(C)c4)ccc3=O)c2)ncc1F (single isomer, unassigned) [Example 693, 3-{(1R or S)-1-[3-(5-fluoro-4-methylpyrimidin-2-yl)phenyl]ethyl}-1}-1-(1-methyl-1H-pyrazol-4-yl)pyridazin-4(1H)-one]",100 to 1000 nM
4,"CC(c1cccc(-c2nccc(C(C)(C)O)n2)c1)c1nn(-c2cnn(C)c2)ccc1=O (single isomer, unassigned) [Example 694, 3-[(1R or S)-1-{3-[4-(2-hydroxypropan-2-yl)pyrimidin-2-yl]phenyl}ethyl]-1-(1-methyl-1H-pyrazol-4-yl)pyridazin-4(1H)-one]",100 to 1000 nM
5,"COCCNc1ccnc(-c2cccc(C(C)c3nn(-c4cnn(C)c4)ccc3=O)c2)n1 (single isomer, unassigned) [Example 695, 3-[(1R or S)-1-(3-{4-[(2-Methoxyethyl)amino]pyrimidin-2-yl}phenyl)ethyl]-1-(1-methyl-1H-pyrazol-4-yl)pyridazin-4(1H)-one]",100 to 1000 nM
6,"CCOC(=O)Nc1cccc(Cc2nn(-c3cnn(C)c3)ccc2=O)c1 [Example 1, Ethyl(3-{[1-(1-methyl-1H-pyrazol-4-yl)-4-oxo-1,4-dihydropyridazin-3-yl]methyl}phenyl)carbamate]",< 100 nM
7,"CCOC(=O)Nc1cccc(Cc2nn(-c3cc(F)c(F)c(F)c3)ccc2=O)c1 [Example 2, Ethyl(3-{[4-oxo-1-(3,4,5-trifluorophenyl)-1,4-dihydropyridazin-3-yl]methyl}phenyl)carbamate]",< 100 nM
8,"CCOc1cnc(-c2cccc(Cc3nn(-c4cnn(C)c4)ccc3=O)c2)nc1 [Example 3, 3-[3-(5-Ethoxypyrimidin-2-yl)benzyl]-1-(1-methyl-1H-pyrazol-4-yl)pyridazin-4(1H)-one]",< 100 nM

# The remaining lines, values ahead:
row,IC50,SMILES
1,100 to 1000 nM,"CCn1cc(-n2ccc(=O)c(C(C)c3cccc(-c4ncn(CC)n4)c3)n2)cn1 (single isomer, unassigned) [Example 686, 1-(1-ethyl-1H-pyrazol-4-yl)-3-{(1S or R)-1-[3-(1-ethyl-1H-1,2,4-triazol-3-yl)phenyl]ethyl} pyridazin-4(1H)-one]"
2,< 100 nM,"CCn1cc(-n2ccc(=O)c(C(C)c3cccc(-c4ncn(CC)n4)c3)n2)cn1 (single isomer, unassigned) [Example 687, 1-(1-ethyl-1H-pyrazol-4-yl)-3-{(1R or S)-1-[3-(1-ethyl-1H-1,2,4-triazol-3-yl)phenyl]ethyl} pyridazin-4(1H)-one]"
3,100 to 1000 nM,"CCCn1cnc(-c2cccc(C(C)c3nn(-c4cnn(CC)c4)ccc3=O)c2)n1 (single isomer, unassigned) [Example 688, 1-(1-ethyl-1H-pyrazol-4-yl)-3-{(1S or R)-1-[3-(1-propyl-1H-1,2,4-triazol-3-yl)phenyl]ethyl} pyridazin-4(1H)-one]"
4,< 100 nM,"CCCn1cnc(-c2cccc(C(C)c3nn(-c4cnn(CC)c4)ccc3=O)c2)n1 (single isomer, unassigned) [Example 689]"
5,< 100 nM,"Cc1ccnc(-c2cccc(C(C)c3nn(-c4cnn(C)c4)ccc3=O)c2)n1 (single isomer, unassigned) [Example 691, 1-(1-methyl-1H-pyrazol-4-yl)-3-{(1R or S)-1-[3-(4-methylpyrimidin-2-yl)phenyl]ethyl} pyridazin-4(1H)-one]"
